Experimental data from PMC11878344 (Angewandte Chemie (International Ed. in English), 2025).

Target: T1, NanoLuc luciferase MAGL fusion protein in HEK293A cells (Homo sapiens, UniProt Q99685)
T1 construct: expressed in transfected cells
T1 sequence (Q99685 1-303): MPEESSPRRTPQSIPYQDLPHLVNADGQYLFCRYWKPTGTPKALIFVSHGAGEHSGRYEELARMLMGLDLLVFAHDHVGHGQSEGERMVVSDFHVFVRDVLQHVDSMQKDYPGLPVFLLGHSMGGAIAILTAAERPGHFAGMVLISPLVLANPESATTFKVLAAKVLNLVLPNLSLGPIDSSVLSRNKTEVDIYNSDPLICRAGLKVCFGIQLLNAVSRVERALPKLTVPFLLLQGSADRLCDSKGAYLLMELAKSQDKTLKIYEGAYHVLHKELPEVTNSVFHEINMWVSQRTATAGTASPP
Assay: Cellular MAGL NanoBRET target engagement assay
Type: cell-based
Settings: Table 1; transfected HEK293 cells; n=1 to 3; read-out: HEK293 nanoBRET IC50
Method: We, therefore, confirmed cellular MAGL target engagement in a nanoBRET assay using live HEK293 cells.[39] […] To overcome the low cellular potency of 4, we exploited the modular construction principle to modulate unfavorable physicochemical properties and investigated less polar, privileged head groups[23, 33, 40] (Supporting Information Table S4). […]
This assay was performed as first described before.[39]
Compounds were profiled by a novel cellular MAGL NanoBRET™ Target Engagement assay, which measures the apparent affinity of test compounds by competitive displacement of a Roche-developed Tracer (WO2021058443, Example 21)[21], reversibly bound to a NanoLuc® luciferase MAGL fusion protein in cells.
A HEK293A stable cell line expressing NanoLuc_MAGL was established at Roche and assigned as HEK293A_NanoLuc_MAGL clone #43. A fixed concentration of tracer is added to cells expressing the NanoLuc®_MAGL fusion protein to generate a BRET reporter complex. The introduction of competing compounds results in a dose-dependent decrease in NanoBRET™ energy transfer, which allows quantification of the intracellular affinity of the target protein for the […]
HEK293A_NanoLuc_MAGL clone #43 cells were cultured in DMEM (Gibco 31966) with 10% FBS and 800 ug/ml G418. The NanoBRET assay was performed by seeding 5000 cells/well in Costar low-volume white 384-well plate in assay buffer (1% FBS in HBSS), followed by adding 50 nM final concentration of tracer and serial dilutions of test compounds. After 2 hours of incubation, Nanoluciferase substrates and extracellular inhibitors were added following the manufacturer's protocol (Promega, #N2520), and the NanoBRET signaling were quantified with the Paradigm

| IC50 | SMILES |
| --- | --- |
| 318 nM | O=C1NC2(CO1)CN(C(=O)N1CC(COCc3ccccc3OCCNc3ccc([N+](=O)[O-])c4nonc34)C1)C2 [Compound 6] |
| 222 nM | O=C(NCCOc1ccccc1COCC1CN(C(=O)OC(C(F)(F)F)C(F)(F)F)C1)OCc1ccccc1 [Compound 7] |
| 307 nM | O=C1NC2(CO1)CN(C(=O)N1CC3(CC(Cc4ccccc4OCCNc4ccc([N+](=O)[O-])c5c4NON5)C3)C1)C2 [Compound 8] |

Same assay, conditions: Table 2; mean of three independent measurements ± SD; read-out: HEK 293 nanoBRET IC50±SD

| IC50 | SMILES |
| --- | --- |
| 308 ± 114 nM | O=C1NC2(CO1)CN(C(=O)N1CC3(CC(Cc4ccccc4OCCNc4ccc([N+](=O)[O-])c5c4NON5)C3)C1)C2 [Compound 8] |
| 99 ± 23 nM | C#CCCCC(=O)NCCOc1ccccc1CC1CC2(C1)CN(C(=O)OC(C(F)(F)F)C(F)(F)F)C2 [Compound 13] |
| 1250 ± 507 nM | O=C(NCCCCCOc1ccccc1CC1CC2(C1)CN(C(=O)O[C@H](CO)C(F)(F)F)C2)O[C@H]1CC/C=C/CCC1 [Compound 14] |

Target: T2, human MAGL (Homo sapiens, UniProt Q99685)
T2 sequence (Q99685 1-303): T1 sequence (Q99685 1-303)
Assay: In vitro MAGL inhibition assay (2-AG hydrolysis followed by mass spectrometry)
Type: biochemical
Settings: Supporting Information Tables S1-S5; read-out: IC50 hMAGL
Method: (§1) 4. Experimental Details of Biochemical Assays and Crystal Structure
(§2) In Vitro MAGL Inhibition Assay
(§3) Compounds were profiled for MAGL inhibitory activity by determining the enzymatic activity by following the hydrolysis of the natural substrate 2-arachidonoylglycerol (2-AG), resulting in arachidonic acid, which can be followed by mass spectrometry. The 2-AG assay was carried out in 384 well assay plates (PP, Greiner Cat# 784201) in a total volume of 20 µL. Compound dilutions were made in 100% DMSO (VWR Chemicals 23500.297) in a polypropylene plate in 3-fold dilution steps to give a final concentration range in the assay from 12.5 µM to 0.8 pM. 0.25µL compound dilutions (100% DMSO) were added to 9 µL MAGL in assay buffer (50 mM TRIS (GIBCO, 15567-027), 1 mM EDTA (Fluka, 03690-100 mL), 0.01% (v/v) Tween. After shaking, the plate was incubated for 15 min at RT. To start the reaction, 10 µL 2-arachidonoylglycerol in assay buffer was added. The final concentrations in the assay were 50 pM MAGL and 8 µM 2-arachidonoylglyerol. After shaking and 30 min incubation at RT, the reaction was quenched by the addition of 40µL of ACN containing 4 µM of d8-arachidonic acid. The amount of arachidonic acid was traced by an online SPE system (Agilent Rapidfire) coupled to a triple quadrupole mass spectrometer (Agilent 6460). A C18 SPE cartridge (G9205A) was used in an ACN/water liquid setup. The mass spectrometer was operated in negative electrospray mode following the mass transitions 303.1 → 259.1 for arachidonic acid and 311.1 → 267.0 for d8-arachidonic acid. The activity of the compounds was calculated based on the ratio of intensities [arachidonic acid / d8- […]
(§4) This assay was performed as first described before.[39] […]

| IC50 | SMILES |
| --- | --- |
| 0.124 nM | O=C1NC2(CO1)CN(C(=O)N1CC3(CC(Cc4ccccc4OCCNc4ccc([N+](=O)[O-])c5c4NON5)C3)C1)C2 [Compound 8] |
| 70 nM | O=C1CO[C@H]2CCN(C(=O)N3CC(OCc4ccccc4OCCNC(=O)OCc4ccccc4)C3)C[C@H]2N1 [Compound S1] |

Same assay, conditions: Table 1; n=1 to 3; read-out: hMAGL IC50

| IC50 | SMILES |
| --- | --- |
| 0.72 nM | O=C1NC2(CO1)CN(C(=O)N1CC(COCc3ccccc3OCCNc3ccc([N+](=O)[O-])c4nonc34)C1)C2 [Compound 6] |
| 0.65 nM | O=C(NCCOc1ccccc1COCC1CN(C(=O)OC(C(F)(F)F)C(F)(F)F)C1)OCc1ccccc1 [Compound 7] |
| 0.09 nM | O=C1NC2(CO1)CN(C(=O)N1CC3(CC(Cc4ccccc4OCCNc4ccc([N+](=O)[O-])c5c4NON5)C3)C1)C2 [Compound 8] |

Same assay, conditions: Table 2; mean of three independent measurements ± SD; read-out: hMAGL IC50±SD

| IC50 | SMILES |
| --- | --- |
| 0.09 ± 0.03 nM | O=C1NC2(CO1)CN(C(=O)N1CC3(CC(Cc4ccccc4OCCNc4ccc([N+](=O)[O-])c5c4NON5)C3)C1)C2 [Compound 8] |
| 0.14 ± 0.04 nM | C#CCCCC(=O)NCCOc1ccccc1CC1CC2(C1)CN(C(=O)OC(C(F)(F)F)C(F)(F)F)C2 [Compound 13] |
| 0.31 ± 0.13 nM | O=C(NCCCCCOc1ccccc1CC1CC2(C1)CN(C(=O)O[C@H](CO)C(F)(F)F)C2)O[C@H]1CC/C=C/CCC1 [Compound 14] |

Target: T3, mouse MAGL (Mus musculus, UniProt O35678)
T3 sequence (O35678 1-303): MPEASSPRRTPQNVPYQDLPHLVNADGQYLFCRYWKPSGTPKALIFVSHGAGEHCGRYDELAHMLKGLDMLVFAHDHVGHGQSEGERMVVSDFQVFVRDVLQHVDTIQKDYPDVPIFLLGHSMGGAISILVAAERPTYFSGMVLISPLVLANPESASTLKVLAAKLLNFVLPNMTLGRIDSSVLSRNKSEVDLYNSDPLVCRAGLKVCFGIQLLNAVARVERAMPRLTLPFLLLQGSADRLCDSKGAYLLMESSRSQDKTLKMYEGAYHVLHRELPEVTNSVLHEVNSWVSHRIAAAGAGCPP
Assay: as above
Type: biochemical
Settings: Supporting Information Tables S1-S5; read-out: IC50 mMAGL
Method: as §1, §2, §3, §4

| IC50 | SMILES |
| --- | --- |
| 0.138 nM | O=C1NC2(CO1)CN(C(=O)N1CC3(CC(Cc4ccccc4OCCNc4ccc([N+](=O)[O-])c5c4NON5)C3)C1)C2 [Compound 8] |

Same assay, conditions: Table 1; n=1 to 3; read-out: mMAGL IC50

| IC50 | SMILES |
| --- | --- |
| 1.03 nM | O=C1NC2(CO1)CN(C(=O)N1CC(COCc3ccccc3OCCNc3ccc([N+](=O)[O-])c4nonc34)C1)C2 [Compound 6] |
| 0.85 nM | O=C(NCCOc1ccccc1COCC1CN(C(=O)OC(C(F)(F)F)C(F)(F)F)C1)OCc1ccccc1 [Compound 7] |
| 0.11 nM | O=C1NC2(CO1)CN(C(=O)N1CC3(CC(Cc4ccccc4OCCNc4ccc([N+](=O)[O-])c5c4NON5)C3)C1)C2 [Compound 8] |

Same assay, conditions: Table 2; mean of three independent measurements ± SD; read-out: mMAGL IC50±SD

| IC50 | SMILES |
| --- | --- |
| 0.12 ± 0.04 nM | O=C1NC2(CO1)CN(C(=O)N1CC3(CC(Cc4ccccc4OCCNc4ccc([N+](=O)[O-])c5c4NON5)C3)C1)C2 [Compound 8] |
| 0.13 ± 0.05 nM | C#CCCCC(=O)NCCOc1ccccc1CC1CC2(C1)CN(C(=O)OC(C(F)(F)F)C(F)(F)F)C2 [Compound 13] |
| 0.42 ± 0.17 nM | O=C(NCCCCCOc1ccccc1CC1CC2(C1)CN(C(=O)O[C@H](CO)C(F)(F)F)C2)O[C@H]1CC/C=C/CCC1 [Compound 14] |

Test system: not listed separately
Assay: Fluorescence excitation/absorption and emission maxima
Type: physicochemical
Settings: PBS pH 7.4
From the text: Figure S8. Fluorescence excitation and emission spectra of the utilized fluorescent reporters in PBS pH 7.4. Spectra l differences between probes carrying the same fluorophore were […]
Table S6. Fluorescence excitation, emission maxima, and Stokes-shift in PBS pH 7.4 for the used fluorophores, respectively. difference s between probes with the same fluorophore were […]
λmax Excitation [nm] λmax Emission [nm] Stokes-shift [nm]
(1 picture or pasted object on this page, not shown here)

| λmax Em (fluorescence emission maximum) | λmax Ex (fluorescence excitation maximum) | SMILES |
| --- | --- | --- |
| 554 nm | 479 nm | O=C1NC2(CO1)CN(C(=O)N1CC3(CC(Cc4ccccc4OCCNc4ccc([N+](=O)[O-])c5c4NON5)C3)C1)C2 [Compound 8] |
